Measured values: ChEMBL document CHEMBL4706705 (Bioorg Med Chem, 2021)
Activity calls are given as the source filed them. The calls are words filed in the database; no cut-off is given here.

Columns and labels:
[1] = Drug level in rat treated with osimertinib at 5 mg/kg, po by LC-MS analysis; assay type: ADME, organism-based; details: in vivo
NCI-H1975 [2] = test: Antitumor activity against human NCI-H1975 cells harboring EGFR L858R/T790M double mutant xenografted in BALB/c nude mouse assessed as tumor growth inhibition at 5 mg/kg, po administered once daily for 11 days relative to control; assay type: functional; details: time 11 day
[3] = target: Epidermal growth factor receptor (Homo sapiens, UniProt P00533, L858R/T790M); test: Inhibition of recombinant human N-terminal GST-tagged EGFR T790M/L858R double mutant using biotinylated TK peptide as substrate measured after 30 mins by HTRF assay
[4] = target: Epidermal growth factor receptor (Homo sapiens, UniProt P00533); test: Inhibition of wild-type EGFR (unknown origin) using biotinylated TK peptide as substrate measured after 30 mins by HTRF assay
NCI-H1975 [5] = test: Antiproliferative activity against human NCI-H1975 cells harboring EGFR L858R/T790M double mutant measured after 72 hrs by celltiter-glo assay; assay type: functional, cell-based; details: NCI-H1975, 72 h
A-431 = test: Cytotoxicity against human A-431 cells harboring wild-type EGFR measured after 72 hrs by celltiter-glo assay; assay type: cell-based; details: A-431, 72 h
NCI-H1975 [6] = test: Potency index, ratio of osimertinib IC50 to test compound IC50 for antiproliferative activity against human NCI-H1975 cells harboring EGFR L858R/T790M double mutant; assay type: functional
Mus musculus [7] = test: In vivo inhibition of EGFR T790M/L858R double mutant in nude mouse xenografted with human NCI-H1975 cells assessed as reduction in EGFR phosphorylation at 5 mg, ig measured after 6 hrs by Western blot analysis; assay type: functional, organism-based
Mus musculus [8] = test: In vivo inhibition of EGFR T790M/L858R double mutant in nude mouse xenografted with human NCI-H1975 cells assessed as reduction in AKT phosphorylation at 5 mg, ig measured after 6 hrs by Western blot analysis; assay type: functional, organism-based
Mus musculus [9] = test: In vivo inhibition of EGFR T790M/L858R double mutant in nude mouse xenografted with human NCI-H1975 cells assessed as reduction in ERK phosphorylation at 5 mg, ig measured after 6 hrs by Western blot analysis; assay type: functional, organism-based
[10] = Toxicity in BALB/c nude mouse xenografted with human NCI-H1975 cells harboring EGFR T790M/L858R double mutant assessed as effect on body weight at 5 mg/kg, po administered once daily for 11 days measured twice daily during compound dosing; assay type: organism-based; details: in vivo, 264 h, time 11 day
[11] = Tmax in rat at 5 mg/kg, po by LC-MS analysis; assay type: ADME, organism-based; details: in vivo
[12] = Cmax in rat at 5 mg/kg, po by LC-MS analysis; assay type: ADME, organism-based; design: route oral, dose 5 mg/kg; details: in vivo
[13] = AUC (0 to 8 hrs) in rat at 5 mg/kg, po by LC-MS analysis; assay type: ADME, organism-based; design: time < 8 hr, route oral, dose 5 mg/kg; details: in vivo
[14] = AUC (0 to infinity) in rat at 5 mg/kg, po by LC-MS analysis; assay type: ADME, organism-based; design: time infinity, route oral, dose 5 mg/kg; details: in vivo
[15] = Half life in rat at 5 mg/kg, po by LC-MS analysis; assay type: ADME, organism-based; details: in vivo
[16] = MRT (0 to infinity) in rat at 5 mg/kg, po by LC-MS analysis; assay type: ADME, organism-based; details: in vivo
[17] = Oral bioavailability in rat at 5 mg/kg by LC-MS analysis; assay type: ADME, organism-based; details: in vivo
[18] = Tmax in rat assessed as N-(5-(4-(1-cyclopropyl-1H-indol-3-yl)pyrimidin-2-ylamino)-4-methoxy-2-(methyl(2-(methylamino)ethyl)amino)phenyl)acrylamide level at 5 mg/kg, po by LC-MS analysis; assay type: ADME, organism-based; details: in vivo
[19] = Cmax in rat assessed as N-(5-(4-(1-cyclopropyl-1H-indol-3-yl)pyrimidin-2-ylamino)-4-methoxy-2-(methyl(2-(methylamino)ethyl)amino)phenyl)acrylamide level at 5 mg/kg, po by LC-MS analysis; assay type: ADME, organism-based; design: route oral, dose 5 mg/kg; details: in vivo
[20] = AUC (0 to 8 hrs) in rat assessed as N-(5-(4-(1-cyclopropyl-1H-indol-3-yl)pyrimidin-2-ylamino)-4-methoxy-2-(methyl(2-(methylamino)ethyl)amino)phenyl)acrylamide level at 5 mg/kg, po by LC-MS analysis; assay type: ADME, organism-based; design: time < 8 hr, route oral, dose 5 mg/kg; details: in vivo
[21] = Tmax in rat assessed as N-(5-(4-(1H-indol-3-yl)pyrimidin-2-ylamino)-2-((2-(dimethylamino)ethyl)(methyl)amino)-4-methoxyphenyl)acrylamide level at 5 mg/kg, po by LC-MS analysis; assay type: ADME, organism-based; details: in vivo
[22] = Cmax in rat assessed as N-(5-(4-(1H-indol-3-yl)pyrimidin-2-ylamino)-2-((2-(dimethylamino)ethyl)(methyl)amino)-4-methoxyphenyl)acrylamide level at 5 mg/kg, po by LC-MS analysis; assay type: ADME, organism-based; design: route oral, dose 5 mg/kg; details: in vivo
[23] = MRT (0 to infinity) in rat assessed as N-(5-(4-(1H-indol-3-yl)pyrimidin-2-ylamino)-2-((2-(dimethylamino)ethyl)(methyl)amino)-4-methoxyphenyl)acrylamide level at 5 mg/kg, po by LC-MS analysis; assay type: ADME, organism-based; details: in vivo
[24] = Drug metabolism in rat assessed as N-(4-methoxy-2-(methyl(2-(methylamino)ethyl)amino)-5-(4-(1-methyl-1H-indol-3-yl)pyrimidin-2-ylamino)phenyl)acrylamide formation at 5 mg/kg, po by LC-MS analysis; assay type: ADME, organism-based; details: in vivo
[25] = Drug level in rat treated with N-(5-(4-(1-cyclopropyl-1H-indol-3-yl)pyrimidin-2-ylamino)-2-((2-(dimethylamino)ethyl)(methyl)amino)-4-methoxyphenyl)acrylamide at 5 mg/kg, po by LC-MS analysis; assay type: ADME, organism-based; details: in vivo

Epidermal growth factor receptor (Homo sapiens, UniProt P00533), sequence (P00533 whole entry): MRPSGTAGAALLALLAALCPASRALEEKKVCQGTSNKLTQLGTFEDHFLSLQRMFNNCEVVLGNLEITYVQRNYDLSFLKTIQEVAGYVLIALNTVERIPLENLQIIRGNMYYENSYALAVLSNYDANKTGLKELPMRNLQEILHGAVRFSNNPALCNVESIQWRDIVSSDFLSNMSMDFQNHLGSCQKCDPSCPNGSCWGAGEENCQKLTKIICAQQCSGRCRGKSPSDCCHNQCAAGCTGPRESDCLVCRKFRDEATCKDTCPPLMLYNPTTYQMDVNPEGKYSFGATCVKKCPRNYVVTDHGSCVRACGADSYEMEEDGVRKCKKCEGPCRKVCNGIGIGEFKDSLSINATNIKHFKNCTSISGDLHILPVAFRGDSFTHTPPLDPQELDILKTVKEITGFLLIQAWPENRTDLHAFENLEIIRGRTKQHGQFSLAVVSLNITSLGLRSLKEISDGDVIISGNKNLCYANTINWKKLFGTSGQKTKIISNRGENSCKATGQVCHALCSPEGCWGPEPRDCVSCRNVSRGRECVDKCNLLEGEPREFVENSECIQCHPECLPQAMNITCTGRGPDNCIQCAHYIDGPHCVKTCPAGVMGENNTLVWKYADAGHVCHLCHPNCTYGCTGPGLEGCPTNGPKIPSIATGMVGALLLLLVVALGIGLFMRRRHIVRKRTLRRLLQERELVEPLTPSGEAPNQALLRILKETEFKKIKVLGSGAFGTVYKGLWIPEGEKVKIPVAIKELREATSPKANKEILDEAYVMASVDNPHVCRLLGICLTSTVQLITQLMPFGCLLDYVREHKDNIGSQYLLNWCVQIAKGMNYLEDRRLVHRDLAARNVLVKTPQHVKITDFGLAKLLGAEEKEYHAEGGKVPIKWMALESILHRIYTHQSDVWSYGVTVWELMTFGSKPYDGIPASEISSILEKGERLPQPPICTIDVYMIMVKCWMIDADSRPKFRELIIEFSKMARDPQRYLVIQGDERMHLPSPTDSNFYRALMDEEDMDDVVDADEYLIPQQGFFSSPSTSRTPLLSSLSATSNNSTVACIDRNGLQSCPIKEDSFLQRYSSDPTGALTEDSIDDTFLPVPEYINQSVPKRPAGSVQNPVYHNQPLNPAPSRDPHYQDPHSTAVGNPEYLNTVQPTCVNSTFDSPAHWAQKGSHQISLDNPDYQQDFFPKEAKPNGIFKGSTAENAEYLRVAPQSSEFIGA
Epidermal growth factor receptor (Homo sapiens, UniProt P00533, L858R/T790M), sequence (P00533 25-1210 T790M/L858R limits assumed): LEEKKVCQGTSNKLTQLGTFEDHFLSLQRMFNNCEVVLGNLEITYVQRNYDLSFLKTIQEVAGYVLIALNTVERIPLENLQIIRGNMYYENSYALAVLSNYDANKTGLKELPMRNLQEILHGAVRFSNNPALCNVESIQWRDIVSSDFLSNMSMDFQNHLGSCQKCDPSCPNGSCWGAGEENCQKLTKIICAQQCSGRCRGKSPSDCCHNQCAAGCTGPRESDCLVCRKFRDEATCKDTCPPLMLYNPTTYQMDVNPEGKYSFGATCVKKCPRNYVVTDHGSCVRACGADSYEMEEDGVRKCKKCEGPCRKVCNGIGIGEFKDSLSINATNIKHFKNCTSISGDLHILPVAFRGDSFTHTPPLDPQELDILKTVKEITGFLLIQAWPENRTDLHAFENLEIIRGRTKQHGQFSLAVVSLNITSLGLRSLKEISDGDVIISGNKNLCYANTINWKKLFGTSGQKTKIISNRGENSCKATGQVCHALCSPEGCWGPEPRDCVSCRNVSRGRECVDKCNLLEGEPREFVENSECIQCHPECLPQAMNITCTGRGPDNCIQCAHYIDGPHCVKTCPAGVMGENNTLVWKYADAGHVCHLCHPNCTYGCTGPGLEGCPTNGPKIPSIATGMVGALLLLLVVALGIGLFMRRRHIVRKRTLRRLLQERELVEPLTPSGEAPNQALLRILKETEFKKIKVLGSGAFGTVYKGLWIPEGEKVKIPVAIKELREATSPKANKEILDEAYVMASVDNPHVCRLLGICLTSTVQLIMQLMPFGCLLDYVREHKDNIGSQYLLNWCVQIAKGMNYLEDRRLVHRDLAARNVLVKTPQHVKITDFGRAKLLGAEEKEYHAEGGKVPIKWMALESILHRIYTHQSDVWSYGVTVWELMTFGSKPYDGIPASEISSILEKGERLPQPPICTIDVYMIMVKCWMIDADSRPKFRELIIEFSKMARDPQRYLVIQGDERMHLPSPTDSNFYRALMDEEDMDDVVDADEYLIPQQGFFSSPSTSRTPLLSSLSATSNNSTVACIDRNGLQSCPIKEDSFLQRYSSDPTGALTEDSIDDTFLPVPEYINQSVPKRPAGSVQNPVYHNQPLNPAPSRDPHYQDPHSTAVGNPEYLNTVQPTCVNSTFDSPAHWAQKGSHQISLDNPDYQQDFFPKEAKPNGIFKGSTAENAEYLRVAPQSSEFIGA

## C=CC(=O)Nc1cc(Nc2nccc(-c3cn(C)c4ccccc34)n2)c(OC)cc1N(C)CCNC
[1]
  Drug uptake: Active

## C=CC(=O)Nc1cc(Nc2nccc(-c3cn(C4CC4)c4ccccc34)n2)c(OC)cc1N(C)CCN(C)C [AUMOLERTINIB]
NCI-H1975 [2]; Mus musculus, NCI-H1975, po, 264 h, read-out: TGI
  inhibition in vivo at 5 mg/kg: 83%
[3]
  IC50: 0.18 nM
[4]
  IC50: 2.89 nM
NCI-H1975 [5]
  IC50: 1.44 nM
A-431
  IC50: 209 nM
NCI-H1975 [6]
  Ratio IC50: 10
Mus musculus [7]
  inhibition: Active
Mus musculus [8]
  inhibition: Active
Mus musculus [9]
  inhibition: Active
[10]
  Activity: Non-Toxic
[11]
  Tmax: 1 h
[12]
  Cmax: 528 ng/mL
[13]
  AUC(0-t) at 8 h: 4580 ng·h/mL
[14]
  AUC(0-inf): 5150 ng·h/mL
[15]
  half-life: 7 h
[16]
  MRT inf: 9.2 h
[17]
  bioavailability: 52%
[18]
  Tmax: 6 h
[19]
  Cmax: 126 ng/mL
[20]
  AUC: 2062 ng·h/mL

## C=CCn1cc(-c2ccnc(Nc3cc(NC(=O)C=C)c(N(C)CCN(C)C)cc3OC)n2)c2ccccc21
[3]
  IC50: 1.51 nM
[4]
  IC50: 15.4 nM
NCI-H1975 [5]
  IC50: 34 nM
Mus musculus [7]
  inhibition: Active
Mus musculus [8]
  inhibition: Active

## C#CCn1cc(-c2ccnc(Nc3cc(NC(=O)C=C)c(N(C)CCN(C)C)cc3OC)n2)c2ccccc21
[3]
  IC50: 1.01 nM
NCI-H1975 [5]
  IC50: 6.22 nM
A-431
  IC50: 690 nM

## C=CC(=O)Nc1cc(Nc2nccc(-c3cn(CCO)c4ccccc34)n2)c(OC)cc1N(C)CCN(C)C
[3]
  IC50: 0.86 nM
[4]
  IC50: 1.54 nM
NCI-H1975 [5]
  IC50: 2.2 nM
A-431
  IC50: 208 nM

## C=CC(=O)Nc1cc(Nc2nccc(-c3cn(C(C)=O)c4ccccc34)n2)c(OC)cc1N(C)CCN(C)C
[3]
  IC50: 2.09 nM
[4]
  IC50: 15.5 nM
NCI-H1975 [5]
  IC50: 15.8 nM
A-431
  IC50: 192 nM

## C=CC(=O)Nc1cc(Nc2nccc(-c3cn(C4COC4)c4ccccc34)n2)c(OC)cc1N(C)CCN(C)C
A-431
  IC50: 84.3 nM

## C=CC(=O)Nc1cc(Nc2ncc(C(F)(F)F)c(-c3cn(C4COC4)c4ccccc34)n2)c(OC)cc1N(C)CCN(C)C
Mus musculus [7]
  inhibition: Active

## C=CC(=O)Nc1cc(Nc2ncc(C(F)(F)F)c(-c3cn(C4CC4)c4ccccc34)n2)c(OC)cc1N(C)CCN(C)C
NCI-H1975 [5]
  IC50: 8.15 nM
A-431
  IC50: 59 nM
Mus musculus [7]
  inhibition: Active

## C=CC(=O)Nc1cc(Nc2nccc(-c3cn(C)c4ccccc34)n2)c(OC)cc1N(C)CCN(C)C [OSIMERTINIB]
NCI-H1975 [2]
  TGI: 70%
NCI-H1975 [5]
  IC50: […]
A-431
  IC50: […]
Mus musculus [7]
  inhibition: Active
Mus musculus [8]
  inhibition: Active
Mus musculus [9]
  inhibition: Active
[11]
  Tmax: 1 h
[12]
  Cmax: 81.4 ng/mL
[15]
  half-life: 5.4 h
[16]
  MRT inf: 9 h
[17]
  bioavailability: 9%
[21]
  Tmax: 6 h
[22]
  Cmax: 48.3 ng/mL
[23]
  MRT: 14.1 h
[24]
  Drug metabolism: Metabolite_Detected

## C=CC(=O)Nc1cc(Nc2nccc(-c3c[nH]c4ccccc34)n2)c(OC)cc1N(C)CCN(C)C
[1]
  Drug uptake: Active

## C=CC(=O)Nc1cc(Nc2nccc(-c3cn(C4CC4)c4ccccc34)n2)c(OC)cc1N(C)CCNC
[25]
  Drug uptake: Active
